In US11207320B2, “Compositions and methods for cancer expressing PDE3A or SLFN12” (The Broad Institute, Inc., priority 2015, dated 2021):

Tests used:
[1] = test system: A549 cells; experiment: Compound library screening and dose-response retest, cell viability (ATP content, CellTiter-Glo); assay type: cell-based; conditions: A549, 48 hours
Procedure: (§1) To identify anti-cancer compounds with cell-selective cytotoxic activity, an unbiased chemical screen was performed in two lung adenocarcinoma cell lines, A549 and NCI-H1734, both of which harbor oncogenic KRAS mutations and truncating STK11 mutations, and which were TP53 wild type and mutant (R273L), respectively. 1,924 compounds were screened from the Molecular Libraries Small-Molecule Repository validation set in the A549 and NCI-H1734 cell lines at a single concentration of 10 μM in 384-well format in duplicate. As a proxy for cellular viability, ATP content was measured after 48 hours of compound treatment.
(§2) 1500 NCI-H1734 or 1000 A549 cells were plated in a 384-well plate in 40 μl of RPMI supplemented with 10% Fetal Bovine Serum and 1% Pen/Strep. 24 hours after plating, a compound-library of 1924 small molecules was added at a concentration of 10 μM. Staurosporine was used a positive control for cytotoxicity at a concentration of 10 μM, and DMSO was used a negative control at a concentration of 1%. All compounds were incubated for 48 hours with indicated small molecules. […] Cell viability was assessed by adding 40 μl of a 25% CELLTITERGLO® (Promega) in PBS with a THERMO COMBI™ or multichannel-pipette and incubated for 10 minutes. The luminescence signal was read using a Perkin-Elmer EnVision. Viability percentage was calculated by normalizing to DMSO controls.

[2] = test system: NCI-H1734 cells; experiment: as above; assay type: cell-based; conditions: NCI-H1734, 48 hours
Procedure: as §1, §2

[3] = test system: A549 cells; experiment: Compound sensitivity testing in cell lines (48 h viability); assay type: cell-based; conditions: Homo sapiens; A549, 48 hours
Procedure: (§3) 1500 NCI-H1734 or 1000 A549 cells were plated in a 384-well plate in 40 μl of RPMI supplemented with 10% Fetal Bovine Serum and 1% Pen/Strep. 24 hours after plating, a compound-library of 1924 small molecules was added at a concentration of 10 μM. Staurosporine was used a positive control for cytotoxicity at a concentration of 10 μM, and DMSO was used a negative control at a concentration of 1%. All compounds were incubated for 48 hours with indicated small molecules. After 48 hours, 384-well plates were removed from the incubator and allowed to cool to room temperature for 20 minutes. Cell viability was assessed by adding 40 μl of a 25% CELLTITERGLO® (Promega) in PBS with a THERMO COMBI™ or multichannel-pipette and incubated for 10 minutes. The luminescence signal was read using a Perkin-Elmer EnVision. Viability percentage was calculated by normalizing to DMSO controls.
(§4) 1000 HeLa (DMEM), 1000 A549 (RPMI), 500 MCF-7 (DMEM), 4000 PC3 (F12-K), 1000 NCI-H2122 (RPMI) or 1500 NCI-H1563 (RPMI) cells were plated in a 384-well plate in 40 μl of corresponding growth media supplemented with 10% Fetal Bovine Serum. 24 hours after plating, indicated compounds were added at indicated concentrations and incubated for 48 hours. Cell viability was assessed as described in Compound library screening in NCI-H1734 and A549 cell lines.

[4] = test system: MCF7 cells; experiment: as above; assay type: cell-based; conditions: Homo sapiens; MCF7, 48 hours
Procedure: as §3, §4

[5] = test system: NCI-H1563 cells; experiment: as above; assay type: cell-based; conditions: Homo sapiens; NCI-H1563, 48 hours
Procedure: as §3, §4

[6] = test system: NCI-H2122 cells; experiment: as above; assay type: cell-based; conditions: Homo sapiens; NCI-H2122, 48 hours
Procedure: as §3, §4

[7] = test system: PC3 cells; experiment: as above; assay type: cell-based; conditions: Homo sapiens, PC-3; PC3, 48 hours
Procedure: as §3, §4

[8] = test system: HeLa cells; experiment: Caspase activity in HeLa cells (Caspase-Glo); assay type: cell-based; conditions: DNMDP treatment 48 hours
Procedure: 1000 HeLa cells were plated in 384-well plate in 40 μl of corresponding growth media supplemented with 10% Fetal Bovine Serum. 24 hours after plating, indicated compounds were added at indicated concentrations and incubated for 48 hours. Caspase-Glo from Promega was added according to the manufacturers recommendations and luminescence was determined as described in Compound library screening in NCI-H1734 and A549 cell lines.

[9] = test system: HeLa cells; experiment: PARP-cleavage immunoblotting; assay type: cell-based; conditions: 36 hours
Procedure: HeLa cells were treated with indicated concentration of DNMDP and staurosporine for 36 hours. HeLa cells were lysed and processed as described in Linker-affinity purification of molecular target of DNMDP and immunoblotting. Membranes were incubated with an antibody against PARP (1:1000, Cell Signaling #9532) and actin and subsequently imaged as described in Linker-affinity purification of molecular target of DNMDP and immunoblotting.

[10] = target: 234 kinases; experiment: Screening of 234 kinases; assay type: biochemical; conditions: 10 μM
[11] = test system: A549 cells; experiment: Sensitization of DNMDP-resistant cell line by expression of SLFN12 or SLFN12 and PDE3A; assay type: cell-based; conditions: A549 expressing SLFN12
Source text: FIG. 22 is a plot showing sensitization of a DNMDP-resistant cell line by expression of SLFN12 or expression of SFLN12 and PDE3A.
Adding PDE3A expression led to further sensitization.

[12] = test system: HeLa cells; assay type: cell-based; conditions: co-treated with DNMDP, 48 hours
Procedure: HeLa cells were co-treated with 30 nM DNMDP (the EC70 concentration) and 20 μM of each bioactive compound. Cell viability after 48-hour treatment was assessed by ATP consumption as described earlier.
1000 HeLa cells were plated in a 384-well plate in 40 μl of DMEM supplemented with 10% Fetal Bovine Serum and 1% Pen/Strep. 24 hours after plating, a compound-library of 1600 bioactive molecules (Pharmacon) was added at a concentration of 20 μM. In parallel to bioactive compound incubation, DNMDP was added to a final concentration of 30 nM and incubated for 48 hours. Cell viability was assessed as described in Compound library screening in NCI-H1734 and A549 cell lines.

| SMILES | effect on cell viability [1] | toxicity in dose-response analysis [2] | EC50 [3] | EC50 [4] | EC50 [5] | EC50 [6] | EC50 [7] | Caspase activity (caspase-sensitive luciferase assay) [8] | PARP cleavage [9] | kinase inhibition [10] | sensitivity of A549 cells upon expression of SLFN12 [11] | RC50 (the concentration at which it achieved 50% rescue) [12] |
| --- | --- | --- | --- | --- | --- | --- | --- | --- | --- | --- | --- | --- |
| CCN(CC)c1ccc(C2=NNC(=O)CC2C)cc1[N+](=O)[O-] (stereo not drawn) [DNMDP, 6-(4-(diethylamino)-3-nitrophenyl)-5-methyl-4,5-dihydropyridazin-3(2H)-one] | did not affect cell viability | specifically toxic | > 1000 nM | > 1000 nM | 10 to 100 nM | 10 to 100 nM | > 1000 nM | detected | detected | no kinase inhibition | sufficient to confer DNMDP sensitivity |  |
| COc1cc2c(cc1OC)-c1c/c(=N\c3c(C)cc(C)cc3C)n(C)c(=O)n1CC2 [trequinsin, 9,10-dimethoxy-3-methyl-2-(2,4,6-trimethylphenyl)imino-6,7-dihydropyrimido[6,1-a]isoquinolin-4-one] |  |  |  |  |  |  |  |  |  |  |  | < 1 nM |
